Literature values as cited in patent US4213968A, “Enkephalin derivatives” (priority 1978, dated 1980).

Experiments:
analgesia in the rat = details: injected directly into the brain of the rat
[1] = system: brain opiate receptor sites

H-Tyr-Gly-Gly-Phe-Met-OH [methionine enkephalin]
analgesic activity (analgesia in the rat): weak analgesic activity of short duration | activity in bioassays for opiate activity (opiate activity): very active | binding to partially purified brain opiate receptor sites [1]: binds stereospecifically
